Point of comparison: `CCc1sc2c(c1S(=O)(=O)c1ccc(O)cc1)CC(Cc1ccccc1Cl)NC2` (stereo unspecified), melting point 176 °C. Against it:
- Cc1nc(Cl)c2c(n1)N(c1c(C)cc(Br)cc1C)C(=O)C2C (stereo unspecified) — lower, 148 to 150 °C
- Cc1ccc(C2CCC(=O)Nc3ccccc32)cc1 (stereo unspecified) — higher, 178 to 181 °C
- Brc1ccc2nc(N3CCOCC3)nn2c1 — lower, 136 °C
- O=C1CCC(c2c[nH]c3ccc(F)cc23)CC1 — lower, 112 to 114 °C
- COC(=O)Oc1c(OC)c(OC)c(OC(=O)OC)c2ccccc12 — lower, 53 to 54 °C
- CC(=O)Nc1ccc(SC2SCC(OC(C)=O)C(OC(C)=O)C2OC(C)=O)cc1 (stereo unspecified) — lower, 168 to 174 °C
- COc1cc(OC)nc(NC(=O)NS(=O)(=O)c2ccccc2S(=O)(=O)OCC(F)(F)F)n1 — higher, 203 to 205 °C
- CC1(C)CNc2nc(-c3ccncc3)cc(=O)n2C1 — lower, 152 to 154 °C
- CC1(C)C2CC[C@]1(C)C(=O)C(C(=O)Nc1ccc(Cl)c(C(F)(F)F)c1)C2=O (stereo partly specified) — lower, 118 to 120 °C
- COc1cc(-c2nc(C)c(C(C)=NNC(N)=O)s2)cc(OC)c1OC — higher, 240 to 242 °C
- CSc1ccc(-c2nc(SC)c(C#N)c(=O)n2-c2ccc(C)cc2)cc1 — higher, 196 to 198 °C
- Cc1[nH]ccc(=O)c1OCc1ccccc1 — lower, 162 to 164 °C
- COC(=O)CCC(=O)c1ccc(-c2ccccc2F)cc1 — lower, 75.5 to 77.5 °C
- O=C1SCCN1Cc1ccccc1[N+](=O)[O-] — lower, 92 to 93 °C
- O=C(c1ccccc1)c1ccc(OCCCCCCBr)cc1 — lower, 47 to 49 °C
- CCCCCCCCCCCCOC(=O)CS(=O)(=O)Nc1c(C(C)C)cccc1C(C)C — lower, 58 to 59 °C
- CCOC(=O)CN(CCN(CCN1CC(=O)OC(=O)C1)CC(=O)O)CC(=O)O — higher, 195 to 196 °C
- O=c1c(Cl)c(CCl)nc2scnn12 — higher, 193 to 195 °C
- CCOC(=O)C1=Cc2cc(C=NO)ccc2OC1C(F)(F)F (stereo unspecified) — lower, 113 to 116 °C
- CN1CCN(C(=O)C(C)(C)OCc2nn(Cc3ccccc3)c3ccccc23)CC1 — lower, 97 to 98 °C
- CC(C)Oc1cc(CCCOc2nc(Cc3ccccc3)sc2CC(=O)O)n(Cc2ccc(Cl)cc2Cl)n1 — lower, 106 to 108 °C
- N#Cc1ccc(OCc2ccc3c(c2)OCO3)cc1OC(C(=O)O)c1ccccc1 (racemic) — lower, 68 to 70 °C
- CN(CCCNC(=O)NCCCCOc1cccc(CN2CCCCC2)c1)CCN(Cc1ccc(F)cc1)c1ccccn1 — lower, 115 °C
- Cc1c(C#N)c(=O)oc2ccc(Br)cc12 — higher, 187 to 192 °C
- COc1ccc(C(=O)NC2CCCNC(=O)C2)cc1OC (stereo unspecified) — higher, 190 to 191 °C
- CCOc1ccc2[nH]c(=O)n(C3Cc4ccccc4C3)c2c1 — lower, 151 °C
- Cn1cncc1C(O)(c1ccc([N+](=O)[O-])cc1)c1ccc2c(c1)c(-c1cccc(Cl)c1)cc(=O)n2C (stereo unspecified) — higher, 230 °C
- COC(=O)CCc1nc(C(=O)OC)ccc1OC — lower, 98 to 100 °C
- CC(C)Oc1cc(COc2cc(CCC(=O)O)n(C)n2)cc(COc2ccc(Cl)cc2Cl)c1 — lower, 105 to 106 °C
- CCCCNC(=S)N1CCN(c2cnccn2)CC1 — lower, 97.5 to 98.5 °C
- CC(C)C(=O)c1ccc2cc(O)c(O)cc2c1 — lower, 154 to 156 °C
- CC(=O)c1ccc(S(=O)(=O)Nc2cccnc2Nc2ccccc2)cc1 — lower, 171 to 173 °C
- N#Cc1ccc(Cc2nc3ccccc3[nH]2)cc1 — lower, 133 to 136 °C
- O=S(=O)(c1cccc(-c2cc(-c3nc(-c4ccc(C(F)(F)F)cc4)cc(C(F)(F)F)n3)ccn2)c1)N1CCC(O)C1 (racemic) — higher, 234 °C
- CC(C)C(=O)Nc1c(N)cc(Br)cc1OCc1ccccc1 — higher, 214 to 215 °C
- CCOC(=O)COc1ccc(OCc2ccccc2)cc1OCc1ccccc1 — lower, 62 to 64 °C
- CCCCCC1COc2cc(C3COC(C4COc5c(cc(F)c(C#N)c5F)C4)OC3)c(F)cc2C1 (stereo unspecified) — lower, 111 °C
- COc1ccc(Oc2c(Cl)cc([N+](=O)[O-])cc2Cl)cc1C(C)C — lower, 75 to 77 °C
- CC(=O)c1cc2c(cc1OCCCCCBr)OC(C(=O)OC(C)C(C)O)CC2 (stereo unspecified) — lower, 80 to 83 °C
- CCCCCCCC/C=C\CCCCCCCC(=O)Nc1nc(CC(=O)O)cs1 — lower, 106 to 108 °C
- O=C1C(=Cc2ccc(Br)cc2)CCc2cc(OCCc3c[nH]cn3)ccc21 — not separable, 176 to 178 °C
- O=C(O)Cn1cc(-c2ccc3nnn(Cc4ccc5ncccc5c4)c3n2)cn1 — higher, > 270 °C
- C[C@@H]1CN(c2cc3c(c(N)c2F)c(=O)c(C(=O)O)cn3C2CC2)C[C@H](C)N1 — higher, 253 to 254 °C
- COc1ccc(-c2sc3c(c2OC(C)=O)CCCC3)cc1 — lower, 81 °C
- O=C(NCCn1cc(C(=O)OCc2ccccc2)ccc1=O)c1cccnc1 — lower, 154 to 155 °C
- CC(C)Cn1c(=O)n(C)c(=O)c2c(C#CCCCO)n(Cc3cccc4ccccc34)cc21 — not separable, 176 to 177 °C
- CCNC(=O)n1nc(Oc2ncc(C(F)(F)F)cc2Cl)c(Br)c1C — lower, 123 to 125 °C
- COc1cc2c3c(Br)cc(OC)c(OC)c3n(C(=O)c3ccc(C(C)(C)C)cc3)c2cc1OC — lower, 136 to 138 °C
- C#CCN1C(=O)C2CC3CC(C2)CC1C3 — lower, 168 to 170 °C
- CC(C)(CO)c1ccc(C#N)cc1 — lower, 70 to 82 °C
- CCCCOC(=O)[C@H]1CN(c2cc(F)c(N3CCOCC3)c(F)c2)C(=O)O1 — lower, 99 to 100 °C
- O=C(O)c1cn(C2CC2)c2c(F)c(N3CC4CC3CN4Cc3ccc([N+](=O)[O-])cc3)c(F)cc2c1=O (stereo unspecified) — higher, 177 to 182 °C
- CCn1cc(C(=O)O)c(=O)c2cc(F)c(Cl)cc21 — higher, 279 to 281 °C
- O=C(CBr)Nc1ccc(I)cc1C(=O)c1ccccc1Cl — lower, 150 to 152 °C
- CCOC(=O)C(CC)CCc1cc(-c2ccccc2)nc2ccccc12 (stereo unspecified) — lower, 76 °C
- COC(=O)c1cc(C(=O)N2CCC(CO)CC2)c2cc(Cc3ccc(F)cc3)cnc2c1O — lower, 161 to 162 °C
- COc1cc(OC)c2c(=O)[nH]c(-c3ccc4[nH]c(CCO)cc4c3)nc2c1 — higher, 237 to 238 °C
- CCC1(c2cccc(OC)c2)CCCCN(C)C1=O (stereo unspecified) — lower, 62 to 64 °C
- Cc1ccc(CC(C)(C)C(=O)C=CN(C)C)cc1 — lower, 74 to 76 °C
- CC12CCCc3cc(Nc4ncc(C(=O)O)cn4)cc(c31)CCC2 — higher, > 300 °C
- CCNC(C)CN1CCc2c(c(=O)oc3c(OC)c(OC)ccc23)C1 (stereo unspecified) — lower, 125 to 127 °C
- COC(=O)CCCCCCC1=C(OC)C(=O)CC1=O — lower, 103 °C
- COc1ccc(-c2ccc(C(C)C=O)cc2F)cc1 (stereo unspecified) — lower, 55 to 59 °C
- CO/C=C(/C(=O)OC)c1ccccc1Br — lower, 68 to 69 °C
- CCOC(=O)C(=O)c1cc(Cl)c(C)cc1NC(=O)OC(C)(C)C — lower, 111 °C
- O=C(NCc1ccncc1)c1cccc2c1OCCO2 — lower, 120 to 121 °C
- CCCCCCCCC=CCCCCCCCCCCCCNC(=O)C=CC(=O)O — lower, 55 °C
- OC(CCN1CCC(c2ccc(Cl)cc2)CC1)c1ccc(Cl)cc1 (stereo unspecified) — lower, 152 to 154 °C
- CCOc1ccc(C(=O)NC2N(C)C(c3ccc(F)cc3)=NC2(C(F)(F)F)C(F)(F)F)cc1 (stereo unspecified) — lower, 115 to 116 °C
- CCCCOc1nc(N)c2nc(Br)n(C3CCCCO3)c2n1 (stereo unspecified) — lower, 148 to 150 °C
- CCCC(=O)C1=C(O)CC(c2c(C)c(C)c(C)c3c2OCC3)CC1=O (stereo unspecified) — lower, 140 °C
- Cc1ncc2n1-c1ccc(Br)cc1C(c1ccccn1)=NC2 — higher, 189 to 190 °C
- N#Cc1cccc(Br)c1N — lower, 119 to 120 °C
- COC(=O)CCn1ncc(-c2ccccc2)c1-c1ccccc1 — lower, 72 to 74 °C
- Nc1noc(C(F)(F)F)c1-c1ccccc1 — lower, 91.5 to 92 °C
- COc1cc(C(=O)NS(=O)(=O)c2ccccc2C)ccc1Cc1cn(C)c2ccc(C(=O)O)cc12 — higher, 255 to 257 °C
- N#Cc1ccc(OCc2cccc(F)c2)cc1 — lower, 104 to 105 °C
- Cc1nn(-c2ccc(Cl)cc2)c(C)c1NC(N)=S — higher, 244 to 246 °C
- CN(C)C1CCCCC1Oc1ccc(Cc2c(-c3ccc(OCCN4CCCC4)cc3)sc3cc(O)ccc23)cc1 (stereo unspecified) — lower, 95 to 98 °C
- O=C(NCCOc1ccc(CC(OCc2ccccc2)C(=O)O)cc1)c1ccc(-c2ccccn2)cc1 (stereo unspecified) — lower, 138 to 139 °C
- CC(=O)OC1=CC2=CCC3C(CCC4(C)C(OC(C)=O)CCC34)C2CC1 (stereo unspecified) — lower, 165 to 171 °C
- CN(C)[C@@H]1Cc2c(O)cccc2C[C@H]1O (relative stereo) — higher, 179 to 183 °C
- CCOc1ccc(CCNC(=O)/C=C/c2cccs2)cc1S(=O)(=O)NC(=S)NC — lower, 74 °C
- Cc1cncc(C(=O)Nc2cc(-c3c(-c4ccc(F)c(C)c4)nc4cccnn34)ccn2)c1 — higher, 238 to 240 °C
- Fc1cccc(COc2ccc(Nc3ncnc4cc(C#Cc5ncccn5)sc34)cc2Cl)c1 — higher, 236 to 240 °C
- O=C(CCl)Nc1ccncc1O — lower, 155 to 158 °C
- COc1cc2c(Nc3ccc(C)c(O)c3)ncnc2cc1OCc1ccncn1 — higher, 290 to 291 °C
- CCOC(=O)c1ccc(NC(=O)C=C(c2ccc(C)cc2)c2ccc(C)cc2)cc1 — lower, 151 to 154 °C
- Cc1nc(N)nc(N)c1CCCc1ccccc1C(F)(F)F — lower, 151 to 158 °C
- CC(C)(C)Nc1cc(NC(C)(C)C)nc(N2CCNCC2)n1 — lower, 135 to 138 °C
- CN(C)c1ccc(C2CCc3ccccc3O2)cc1 (stereo unspecified) — lower, 77 to 78 °C
- CCC(=O)Nc1c(C(O)(C(F)(F)F)C(F)(F)F)ccc2ccccc12 — lower, 118 to 119 °C
- COc1ccc2c(c1)C(N=Cc1cc(OC)c(OC)cc1[N+](=O)[O-])CCO2 (stereo unspecified) — lower, 143 to 145 °C
- Cc1ccc2c(c1)c1cc(C(=O)c3ccccc3C(=O)O)ccc1n2CCC#N — higher, 190 °C
- C=Cc1ccc2c3ccc(C=C)cc3n(CC(CC)CCCC)c2c1 (stereo unspecified) — lower, 59 to 60 °C
- CCNc1nc(C=O)cs1 — lower, 84 to 85 °C
- O=C(O)c1c(Br)c(Br)cc2c1OCCO2 — higher, 212 °C
- Clc1ccc(C2(CBr)OCC(c3ccc(Cl)cc3Cl)O2)cc1 (stereo unspecified) — lower, 82.7 °C
- COc1ccc(Nc2nc(-c3ccccc3)cc(N3CCC(OC(=O)CCC(=O)O)CC3)n2)cc1Cl — higher, 218 to 220 °C
- N[C@@H](Cc1ccc(Cl)c(OC(F)(F)C(F)F)c1)[C@H](O)c1ccc(F)cc1 (racemic) — lower, 109 to 110 °C

Reference: a melting point compilation (Tetko et al.; mined from patent text by program, amines drawn as free bases though some values may be those of a salt)
